Holding throughout (format): functional
In test [1] the test system is Mus musculus. The experiment in a line: Evaluation of Radioprotective effect of the intravenously administered compound (0.1 mg/kg on day 0,4,8) after irradiation on mice with 9 Gy of X-ray on day 15.
The test system of test [2] is Mus musculus. Description: Evaluation of Radioprotective effect of the intravenously administered compound (0.1 mg/kg on day 0,4,8) after irradiation on mice with 9 Gy of X-ray on day 25.
Test [3] deals with Mus musculus. The experiment in a line: Evaluation of Radioprotective effect of the intravenously administered compound (0.1 mg/kg on day 0,4,8) after irradiation on mice with 9 Gy of X-ray on day 35.
The subject of test [4] is Mus musculus. Description: Evaluation of Radioprotective effect of the intravenously administered compound (0.1 mg/kg on day 0,4,8) after irradiation on mice with 9 Gy of X-ray on day 20.
Test [5] relates to Mus musculus. Description: Evaluation of Radioprotective effect of the intravenously administered compound (0.1 mg/kg on day 0,4,8) after irradiation on mice with 9 Gy of X-ray on day 10.

The structures appear in SMILES notation. “And” between values parts separate entries of the source, which are not always exact repeats. Equal entries are not always repeated.

With `CCCCCCCCCCCCCCCCCCCCCC[C@@H](O)C(=O)N[C@@H](CO[C@H]1O[C@@H](CO)[C@H](O)[C@H](O)[C@@H]1O)[C@H](O)[C@H](O)CCCCCCCCCCCCCC`, the Survival in test [1] was 100%; in test [2], 80%; in test [3], 90% and 80%; in test [4] it was 80%; in test [5] it was 100%.
Consider `CCCCCCCCCCCCCCCCCCCCCCCC(=O)NC(CO[C@H]1O[C@@H](CO)[C@H](O)[C@H](O)[C@@H]1O)[C@H](O)CCCCCCCCCCCCCCC` (single isomer, unassigned), for which the Survival in test [1] came to 100%; in test [2], 90%; in test [3] it was 90%; in test [4], 90%; in test [5] it was 100%.
For the compound `CCCCCCCCCCCCCCCCCCCCCC[C@@H](O)C(=O)NC(CO[C@H]1O[C@@H](CO)[C@H](O)[C@H](O)[C@@H]1O)[C@H](O)CCCCCCCCCCCCCCC` (single isomer, unassigned), the Survival in test [1] is 100%; in test [2] it was 90%; in test [3] it was 90%; in test [4], 90%; in test [5], 100%.
In the case of `CCCCCCCCCCCCCCCCCCCCCCCC(=O)N[C@@H](CO[C@H]1O[C@@H](CO)[C@H](O)[C@H](O)[C@@H]1O)C(O)[C@H](O)CCCCCCCCCCCCCC` (single isomer, unassigned), the Survival in test [1] is 100% and 90%; in test [2], 90%; in test [3], 90%; in test [4] it was 90%; in test [5], 100%.
Regarding `CCCCCCCCCCCCCCC[C@@H](O)[C@H](CO[C@H]1O[C@@H](CO)[C@H](O)[C@H](O)[C@@H]1O)NC(=O)CCCCCCCCCCCCC` (stereo in doubt; form 1), the Survival in test [1] is 100% and 90%; in test [2] it was 90%; in test [3], 90%; in test [4], 90%; in test [5], 100%.
In the case of `CCCCCCCCCCCCCCC[C@@H](O)[C@H](CO[C@H]1O[C@@H](CO)[C@H](O)[C@H](O)[C@@H]1O)NC(=O)CCCCCCCCCCCCC` (stereo in doubt; form 2), the Survival in test [2], in test [3] and in test [4] was 20% each time.
